Assays:
[1] = tested on: Plasmodium falciparum; experiment: Antimalarial activity against chloroquine-sensitive Plasmodium falciparum 3D7 infected in erythroctes incubated for 72 hrs by SYBR green 1 based spectrofluorometer; assay type: functional, organism-based, Erythrocyte
[2] = tested on: Plasmodium berghei; experiment: Antiplasmodial activity against Plasmodium berghei KBG-173 infected in male mouse assessed as inhibition of parasitemia at 50 mg/kg, po administered as single dose on day 1 post exposure and measured on day 6 post exposure relative to control; assay type: functional; conditions: KBG-173, 72 h, time 3 day
[3] = tested on: Plasmodium falciparum; experiment: Antimalarial activity against chloroquine-resistant Plasmodium falciparum K1 infected in erythroctes incubated for 72 hrs by SYBR green 1 based spectrofluorometer; assay type: functional, organism-based, Erythrocyte
[4] = tested on: Plasmodium berghei; experiment: Antiplasmodial activity against Plasmodium berghei KBG-173 infected in male mouse assessed as inhibition of parasitemia at 50 mg/kg, po administered as single dose on day 1 post exposure and measured on day 3 post exposure relative to control; assay type: functional; conditions: KBG-173, 72 h, time 3 day
[5] = Cytotoxicity against mouse J774.A1 cells; assay type: toxicity, cell-based
[6] = Plasmodium falciparum, 3D7, Erythrocyte, 72 h
[7] = Plasmodium falciparum, K1, Erythrocyte, 72 h

| SMILES | EC50 ([1]; erythrocyte) | inhibition in vivo at 50 mg/kg [2] | EC50 ([3]; erythrocyte) | inhibition in vivo at 50 mg/kg [4] | EC50 [5] | EC50 [1, 6] | EC50 [3, 7] |
| --- | --- | --- | --- | --- | --- | --- | --- |
| CCOC(=O)C1=C(C)NC2=C(C(=O)OC(c3ccc(OC)c(OC)c3)C2)C1c1ccccc1Cl (stereo in doubt; 3B) | 260 nM | 77.6% | 53.9 nM | 100% | – | – | – |
| CCOC(=O)C1=C(C)NC2=C(C(=O)OC(c3ccc(OC)c(OC)c3)C2)C1c1ccc(Br)cc1 (stereo in doubt; 12A) | 1450 nM | – | 3370 nM | – | > 20000 nM | – | – |
| CCOC(=O)C1=C(C)NC2=C(C(=O)OC(c3ccc(OC)c(OC)c3)C2)C1c1ccc([N+](=O)[O-])cc1 (stereo in doubt; 13A) | > 10000 nM | – | > 10000 nM | – | > 20000 nM | – | – |
| CCOC(=O)C1=C(C)NC2=C(C(=O)OC(c3ccccc3Cl)C2)C1c1ccccc1Cl (stereo in doubt; 18A) | – | – | – | – | > 20000 nM | > 5500 nM | > 5500 nM |
| CCOC(=O)C1=C(C)NC2=C(C(=O)OC(c3ccc(Cl)cc3)C2)C1c1ccccc1Cl (stereo in doubt; 20A) | 510 nM | – | 560 nM | – | > 20000 nM | – | – |
| CCOC(=O)C1=C(C)NC2=C(C(=O)OC(c3cccc(C)c3)C2)C1c1ccccc1Cl (stereo in doubt; 22A) | – | – | – | – | > 20000 nM | > 5000 nM | > 5000 nM |
| CCOC(=O)C1=C(C)NC2=C(C(=O)OC(c3ccc(C)cc3)C2)C1c1ccccc1Cl (stereo in doubt; 23A) | – | – | > 5000 nM | – | > 20000 nM | > 5000 nM | – |
| CCOC(=O)C1=C(C)NC2=C(C(=O)OC(c3ccccc3OC)C2)C1c1ccccc1Cl (stereo in doubt; 24A) | – | – | – | – | > 20000 nM | > 6000 nM | > 6000 nM |
| CCOC(=O)C1=C(C)NC2=C(C(=O)OC(c3cccc(OC)c3)C2)C1c1ccccc1Cl (stereo in doubt; 25A) | 2130 nM | – | > 7000 nM | – | > 20000 nM | – | – |
| CCOC(=O)C1=C(C)NC2=C(C(=O)OC(c3ccc(OC)cc3)C2)C1c1ccccc1Cl (stereo in doubt; 26A) | > 7000 nM | – | > 7000 nM | – | > 20000 nM | – | – |
| COC(=O)C1=C(C)NC2=C(C(=O)OC(c3ccc(OC)c(OC)c3)C2)C1c1ccccc1Cl (stereo in doubt; 28A) | > 8500 nM | – | > 8500 nM | – | > 20000 nM | – | – |
| CCCOC(=O)C1=C(C)NC2=C(C(=O)OC(c3ccc(OC)c(OC)c3)C2)C1c1ccccc1Cl (stereo in doubt; 29A) | 2360 nM | – | > 7000 nM | – | > 20000 nM | – | – |
| COc1ccc(C2CC3=C(C(=O)O2)C(c2ccccc2Cl)C(C(=O)OC(C)(C)C)=C(C)N3)cc1OC (stereo in doubt; 30A) | – | – | > 13000 nM | – | > 20000 nM | > 13000 nM | – |
| COc1ccc(C2CC3=C(C(=O)O2)C(c2ccccc2Cl)C(C(=O)OCc2ccccc2)=C(C)N3)cc1OC (stereo in doubt; 31A) | – | – | – | – | > 20000 nM | > 11800 nM | > 11800 nM |
| CCCC1=C(C(=O)OCC)C(c2ccccc2Cl)C2=C(CC(c3ccc(OC)c(OC)c3)OC2=O)N1 (stereo in doubt; 32A) | 811 nM | – | 418 nM | – | > 20000 nM | – | – |
| CCOC(=O)C1=C(C(=O)OCC)C(c2ccccc2Cl)C2=C(CC(c3ccc(OC)c(OC)c3)OC2=O)N1 (stereo in doubt; 33A) | 38.1 nM | – | 13.6 nM | – | > 20000 nM | – | – |
| CCOC(=O)C1=C(c2ccccc2)NC2=C(C(=O)CC(c3ccc(OC)c(OC)c3)C2)C1c1ccccc1Cl (stereo in doubt; 35A) | 3720 nM | – | > 10900 nM | – | > 20000 nM | – | – |
| CCOC(=O)C1=C(C)NC2=C(C(=O)CC(c3ccc(OC)c(OC)c3)C2)C1c1ccc(Cl)cc1 (stereo in doubt; 36A) | 264 nM | – | 221 nM | – | > 20000 nM | – | – |
| CCOC(=O)C1=C(C)NC2=C(C(=O)CC(c3ccc(OC)c(OC)c3)C2)C1c1ccc(Cl)cc1C (stereo in doubt; 37A) | 94 nM | – | 82.6 nM | – | > 20000 nM | – | – |
| CCOC(=O)C1=C(C)NC2=C(C(=O)CC(c3ccc(OC)c(OC)c3)C2)C1c1ccc(Cl)cc1C (stereo in doubt; 37B) | 14.5 nM | < 10% | 15.9 nM | < 10% | – | – | – |
| CCOC(=O)C1=C(C)NC2=C(C(=O)OC(c3ccc(OC)c(OC)c3)C2)C1c1ccc(Cl)cc1C (stereo in doubt; 38A) | > 4700 nM | – | 992 nM | – | > 20000 nM | – | – |
| CCOC(=O)C1=C(C)NC2=C(C(=O)OC(c3ccc(OC)c(OC)c3)C2)C1c1ccc(Cl)cc1C (stereo in doubt; 38B) | 10.6 nM | < 10% | 29.1 nM | < 10% | – | – | – |

| SMILES | EC50 ([1]; erythrocyte) | inhibition in vivo at 50 mg/kg [2] | EC50 ([3]; erythrocyte) | inhibition in vivo at 50 mg/kg [4] | EC50 [5] | EC50 [1, 6] | EC50 [3, 7] |
| --- | --- | --- | --- | --- | --- | --- | --- |
| CCOC(=O)C1=C(C)NC2=C(C(=O)CC(c3ccc(Cl)c(OC)c3)C2)C1c1ccccc1Cl (stereo in doubt; 39A) | 630 nM | – | 397 nM | – | > 20000 nM | – | – |
| CCOC(=O)C1=C(C)NC2=C(C(=O)CC(c3ccc(Cl)c(OC)c3)C2)C1c1ccccc1Cl (stereo in doubt; 39B) | 18.5 nM | < 10% | 22.3 nM | < 10% | – | – | – |
| CCOC(=O)C1=C(C)NC2=C(C(=O)OC(c3ccc(Cl)c(OC)c3)C2)C1c1ccccc1Cl (stereo in doubt; 40A) | > 7700 nM | – | 2870 nM | – | > 20000 nM | – | – |
| CCOC(=O)C1=C(C)NC2=C(C(=O)OC(c3ccc(Cl)c(OC)c3)C2)C1c1ccccc1Cl (stereo in doubt; 40B) | 135 nM | < 10% | 217 nM | 66% | – | – | – |
| CCOC(=O)C1=C(C)NC2=C(C(=O)CC(c3ccc(Cl)c(OC)c3)C2)C1c1ccc(Cl)cc1C (stereo in doubt; 41A) | 550 nM | – | 385 nM | – | > 20000 nM | – | – |
| CCOC(=O)C1=C(C)NC2=C(C(=O)CC(c3ccc(Cl)c(OC)c3)C2)C1c1ccc(Cl)cc1C (stereo in doubt; 41B) | 9.4 nM | < 10% | 9.7 nM | < 10% | – | – | – |
| CCOC(=O)C1=C(C)NC2=C(C(=O)OC(c3ccc(Cl)c(OC)c3)C2)C1c1ccc(Cl)cc1C (stereo in doubt; 42A) | > 13000 nM | – | > 13000 nM | – | > 20000 nM | – | – |
| CCOC(=O)C1=C(C)NC2=C(C(=O)OC(c3ccc(Cl)c(OC)c3)C2)C1c1ccc(Cl)cc1C (stereo in doubt; 42B) | 58 nM | 5.83% | 38.4 nM | 34% | – | – | – |
| CCCC1=C(C(=O)OCC)C(c2ccccc2Cl)C2=C(CC(c3ccc(OC)c(OC)c3)CC2=O)N1 (stereo in doubt; 43A) | 28.6 nM | – | 26.5 nM | – | > 20000 nM | – | – |
| CCCC1=C(C(=O)OCC)C(c2ccc(Cl)cc2C)C2=C(CC(c3ccc(OC)c(OC)c3)CC2=O)N1 (stereo in doubt; 44A) | 98.3 nM | – | 82.9 nM | – | > 20000 nM | – | – |
| CCCC1=C(C(=O)OCC)C(c2ccc(Cl)cc2C)C2=C(CC(c3ccc(OC)c(OC)c3)CC2=O)N1 (stereo in doubt; 44B) | 3.4 nM | 6.76% | 11.1 nM | 34% | – | – | – |
| CCCC1=C(C(=O)OCC)C(c2ccc(Cl)cc2C)C2=C(CC(c3ccc(OC)c(OC)c3)OC2=O)N1 (stereo in doubt; 45A) | 148 nM | – | 102 nM | – | > 20000 nM | – | – |
| CCCC1=C(C(=O)OCC)C(c2ccc(Cl)cc2C)C2=C(CC(c3ccc(OC)c(OC)c3)OC2=O)N1 (stereo in doubt; 45B) | 5.1 nM | < 10% | 3.9 nM | < 10% | – | – | – |
| CCCC1=C(C(=O)OCC)C(c2ccc(Cl)cc2C)C2=C(CC(c3ccc(Cl)c(OC)c3)CC2=O)N1 (stereo in doubt; 46A) | 319 nM | – | 244 nM | – | > 20000 nM | – | – |
| CCCC1=C(C(=O)OCC)C(c2ccc(Cl)cc2C)C2=C(CC(c3ccc(Cl)c(OC)c3)CC2=O)N1 (stereo in doubt; 46B) | 10.4 nM | < 10% | 19.8 nM | < 10% | – | – | – |
| CCCC1=C(C(=O)OCC)C(c2ccc(Cl)cc2C)C2=C(CC(c3ccc(Cl)c(OC)c3)OC2=O)N1 (stereo in doubt; 47B) | 22.7 nM | < 10% | 21.5 nM | < 10% | – | – | – |
| CCCC1=C(C(=O)OCC)C(c2ccc(Cl)cc2C)C2=C(CC(c3cc(OC)ccc3OC)CC2=O)N1 (stereo in doubt; 48A) | 542 nM | – | 228 nM | – | > 20000 nM | – | – |
| COCC1=C(C(=O)OC)C(c2ccc(Cl)cc2C)C2=C(CC(c3ccc(OC)c(OC)c3)CC2=O)N1 (stereo in doubt; 51A) | 39.6 nM | – | 21.6 nM | – | > 20000 nM | – | – |
| COCC1=C(C(=O)OC)C(c2ccc(Cl)cc2C)C2=C(CC(c3ccc(OC)c(OC)c3)CC2=O)N1 (stereo in doubt; 51B) | 2.5 nM | < 10% | 6.2 nM | 100% | – | – | – |
| CCOC(=O)C1=C(C)NC2=C(C(=O)OC(c3cc(OC)c(OC)c(OC)c3)C2)C1c1ccccc1Cl (stereo in doubt; 54A) | 322 nM | – | 315 nM | – | > 20000 nM | – | – |
| COCC1=C(C(=O)OC)C(c2ccc(Cl)cc2)C2=C(CC(c3cc(OC)c(OC)c(OC)c3)OC2=O)N1 (stereo in doubt; 56A) | 61 nM | – | – | – | > 20000 nM | – | 62.4 nM |
| CCN(CC)Cc1cc(Nc2ccnc3cc(Cl)ccc23)ccc1O [AMODIAQUINE] | – | 100% | – | 100% | – | – | – |

— ChEMBL document CHEMBL5579840, “Optimization of diastereomeric dihydropyridines as antimalarials” (Eur J Med Chem, 2024)
